Assay results published in patent publication US6217875A, “Inhibitors of lipoxygenase” (priority 1997, dated 2001).
“Also recorded” adds a separate entry of the source. Where two headings read alike, the source gives them in different places.

How the values were obtained:
[1] = tested on: oxazolone-induced inflammation in the ears of mice; conditions: skin, 1.0 mg/ear; already reported data; cited from earlier work
[2] = target: T1, 5-lipoxygenase (Rattus norvegicus, UniProt P12527); assay: Test of 5-Lipoxygenase Inhibitory Activity (rat PMNL enzyme, radiolabelled arachidonic acid, TLC); assay type: biochemical, Wistar-King rats
T1 construct: The supernatant was used as the enzyme solution of 5-lipoxygenase; from tissue; host or cells: peritoneal polymorphonuclear leukocytes (PMNL) of glycogen-injected Wistar-King rats, homogenate supernatant
T1 sequence (P12527 1-673): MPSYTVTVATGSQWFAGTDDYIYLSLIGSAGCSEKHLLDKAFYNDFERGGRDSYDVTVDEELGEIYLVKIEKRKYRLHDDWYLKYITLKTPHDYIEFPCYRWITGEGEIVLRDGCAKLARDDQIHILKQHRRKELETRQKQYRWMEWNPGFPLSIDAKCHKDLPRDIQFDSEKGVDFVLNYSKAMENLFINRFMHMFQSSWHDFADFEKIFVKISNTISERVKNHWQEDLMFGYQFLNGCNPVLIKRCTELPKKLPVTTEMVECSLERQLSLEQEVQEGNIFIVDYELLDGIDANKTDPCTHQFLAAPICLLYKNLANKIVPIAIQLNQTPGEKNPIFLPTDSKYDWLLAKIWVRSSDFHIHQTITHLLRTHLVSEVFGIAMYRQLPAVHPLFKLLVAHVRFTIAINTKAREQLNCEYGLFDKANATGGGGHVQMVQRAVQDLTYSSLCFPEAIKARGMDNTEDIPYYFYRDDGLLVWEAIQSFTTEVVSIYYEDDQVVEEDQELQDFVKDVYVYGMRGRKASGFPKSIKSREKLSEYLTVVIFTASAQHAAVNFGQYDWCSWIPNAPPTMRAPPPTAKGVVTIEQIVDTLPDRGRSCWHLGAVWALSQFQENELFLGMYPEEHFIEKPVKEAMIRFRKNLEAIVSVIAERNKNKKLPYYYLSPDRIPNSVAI
Procedure: (1) Formation of Enzyme Solution of 5-Lipoxygenase
Peritoneal polymorphonuclear leukocytes (PMNL) were prepared from normal Wistar-King rats (150-400 g) injected intraperitoneally with 5% (w/v) glycogen (20 mL/kg). A suspension in potassium phosphate buffer (50 mM, pH 7.4) was homogenized and centrifuged. The supernatant was used as the enzyme solution of 5-lipoxygenase.
(2) Measurement of Inhibitory Activity Against 5-Lipoxygenase
0.02 mL Of enzyme solution (2 mg protein/mL) and [1l-^14 C] arachidonic acid ([…]) were incubated with each testing solution (0.02 mL) and Ca^2+ and ATP at 37° C. for 5 min.
After incubation at 37° C. for 5 min, the reaction was terminated by adding 0.2 mL of 0.5 N formic acid, and the metabolite was extracted by 3 mL of ethyl acetate.
Then the extracted solution was subjected to thin-layer chromatography (TLC) and developed with ether/petroleum ether/acetic acid (50:50:1, v/v) at 4° C. The radioactive metabolites generated by 5-lipoxygenase were detected and quantified using autoradiography. The inhibitory activity on 5-lipoxygenase was measured and expressed as a percentage of the control.

[3] = tested on: lipoxygenase; assay: Inhibition of lipoxygenase enzyme activity (general statement); assay type: biochemical; conditions: enzyme not given
[4] = tested on: TPA-induced inflammation to the ears of mice; conditions: skin, 0.5 mg/ear; already reported data; cited from earlier work
[5] = tested on: 12-lipoxygenase; assay: Test of 12-Lipoxygenase Inhibitory Activity (rat platelet enzyme, radiolabelled arachidonic acid, TLC); assay type: biochemical, Wistar-King rats
Procedure: A test of the substances' effectiveness as inhibitors of the enzyme activity of 12-lipoxygenase was conducted for Embodiment 1 to 4.
(1) Formation of Enzyme Solution of 12-Lipoxygenase
Blood was collected from normal Wistar-King rats (150-400 g) and 0.5 mM of EDTA was added as anti-coagulant. The centrifuged supernatant (1,200 rpm for 10 min.) was again centrifuged at 3,000 rpm for 10 min. The deposited platelets were washed by 25 mM Tris/HCl buffer (pH 7.4) 1 mM EDTA /130 mM NaCl. The suspension of platelets in 1 mM EDTA was homogenized and used as an enzyme solution of 12-lipoxygenase.
(2) Measurement of Inhibitory Activity of 12-Lipoxygenase
Four to six testing solutions with different levels of concentration were prepared for Embodiment 1 to 4. 0.13 mL of enzyme solution (2 mg protein/mL) and [1-^14 C] arachidonic acid ([…]) were incubated with a testing solution (0.02 mL) at 37° C. for 5 min.
After incubation at 37° C. for 5 min., the reaction was terminated by adding 0.2 mL of 0.5 N formic acid, and the metabolite was extracted by adding 3 mL of ethyl acetate. […] The radioactive metabolites of 12 lipoxygenase were detected and quantified using autoradiography. The inhibitory activity of 12-lipoxygenase was measured and expressed as a percentage of the control.

[6] = tested on: oxazolone-induced inflammation in the ears of mice; assay: Allergy control test against oxazolone-induced inflammation in the ears of mice, application to the skin; assay type: in vivo, mice (I.C.R)
Procedure: As described in this section, an allergy control test of oxazolone-induced inflammation to the ears of mice was conducted.
(§1) (1) Application to the Skin
Oxazolone solution in ethanol (500 μg/100 μl) was applied to the abdominal region of mice (I.C.R, 5 weeks old, Clair), that had been shaved by hair clippers under an anesthetic of Nembutal (Immunization).
After 5 days of immunization, oxazolone solution in acetone, containing a prescribed amount of the sample being tested (Embodiment 1), was applied to the right ears of the mice (Challenge).
Also, as a comparison, data on NDGA (Comparison 7), ketoprophen (Comparison 8), phenidone (Comparison 9) and mepiramine (Comparison 10) which had already been reported, were listed in Table 3.

[7] = tested on: TPA-induced inflammation to the ears of mice; assay: Regulating inflammatory reaction against TPA-induced inflammation to the ears of mice, application to the skin; assay type: in vivo, mice (ICR); conditions: for Regulating Coefficient: TPA 0.8 μg/20 μl/ear, after 4 hours
Procedure: as §1
Test solutions for Embodiment 1, 3 and 4 were prepared and applied to the right ears of mice (ICR, 5 weeks old, Clair) by adding acetone solution of TPA (0.8 μg/20 μl/ear).

Q: With `CC(C(=O)O)c1cccc(C(=O)c2ccccc2)c1` (stereo not shown) [Comparison 8, ketoprophen] as the molecule, how does the “Regulating Coefficient” value [1] read?
A: 32%

Q: For `O=C(O)/C=C/c1ccc(O)c(O)c1` [Comparison 5, caffeic acid, reference compound], which IC50 [2] is on record?
A: 72 µM

Q: Which “Inhibition of lipoxygenase enzyme activity (in words)” value (shortened to “Inhibition”) [3] does the source give for `O=c1cc(-c2ccc(O)cc2)oc2cc(O)cc(O)c12` [apigenin] here?
A: strongly inhibit lipoxygenase enzyme activity

Q: With `COc1cc(-c2cc(=O)c3c(O)cc(O)cc3o2)ccc1O` [Embodiment 2, chrysoeriol] as the molecule, how does the “Inhibition” value [3] read?
A: strongly inhibit lipoxygenase enzyme activity; also recorded: lesser inhibitory activity

Q: With `CC(Cc1ccc(O)c(O)c1)C(C)Cc1ccc(O)c(O)c1` (stereo not shown) [Comparison 7, NDGA] as the molecule, how does the “Regulating Coefficient” value [4] read?
A: 40%

Q: What about the “Regulating Coefficient” value [1] of the same molecule?
A: 38%

Q: What does the source list for `O=C(/C=C/c1ccc(O)c(O)c1)O[C@H](Cc1ccc(O)c(O)c1)C(=O)O` [Comparison 1, rosemarinic acid, reference compound]?
A: IC50 [2]: 6.2 µM; Inhibition of lipoxygenase enzyme activity (in words) [3]: strongly inhibit lipoxygenase enzyme activity

Q: Which “Inhibitory activity against 5-lipoxygenase (in words)” value ([2]; in words) does the source give for `O=c1cc(-c2ccc(O)c(O)c2)oc2cc(O)cc(O)c12` [Embodiment 1, luteolin] here?
A: significant 5-LO inhibitory activity; also recorded: stronger inhibitory activity than that of Comparison 1 (rosemarinic acid) and Comparison 2 (rosemarinic acid methyl ester)

Q: And the IC50 ([2]; rat PMNL enzyme, 37° C., 5 min)?
A: 0.1 µM

Q: And the “Inhibition” value [3]?
A: strongly inhibit lipoxygenase enzyme activity; also recorded: outstanding inhibitory activity

Q: What about the “Inhibitory activity against 12-lipoxygenase (in words)” value [5] of the same molecule?
A: very strong inhibitory activity, similar to that against 5-lipoxygenase

Q: What about the “Regulating Coefficient” value ([6]; 0.3 mg/ear, 48 hours after challenge) of the same molecule?
A: 52%

Q: And the “Anti-allergic action (in words)” value [6]?
A: higher regulating coefficient for a smaller amount of application against Comparisons 7 to 10

Q: And the “Anti-allergic action (in words)” value ([6]; listed as luteolin)?
A: significant anti-allergic action

Q: And the “Regulating Coefficient” value ([7]; 0.15 mg/ear)?
A: 85%

Q: And the “Regulating Coefficient” value ([7]; 0.3 mg/ear)?
A: 100%

Q: What about the “Regulating effect against inflammation (in words)” value ([7]; in words) of the same molecule?
A: significant regulating effect against inflammation; also recorded: anti-inflammatory action, which correlated with the concentration of luteolin

Q: With `COC(=O)[C@@H](Cc1ccc(O)c(O)c1)OC(=O)/C=C/c1ccc(O)c(O)c1` [Comparison 2, rosemarinic acid methyl ester, reference compound] as the molecule, how does the IC50 ([2]; rat PMNL enzyme, 37° C., 5 min) read?
A: 0.6 µM

Q: What about the “Inhibition” value [3] of the same molecule?
A: strongly inhibit lipoxygenase enzyme activity

Q: Which “Regulating Coefficient” value [1] does the source give for `COc1ccc(CN(CCN(C)C)c2ccccn2)cc1` [Comparison 10, mepiramine] here?
A: 38%

Q: Which “Regulating Coefficient” value [1] does the source give for `O=C1CCN(c2ccccc2)N1` [Comparison 9, phenidone] here?
A: 44%
